{"source": "paper PMC9785492", "about": "(Viruses, 2022)", "tested_on": "A/PR/8/34 with NA-H274Y", "format": "cell-based, Influenza A virus (H1N1)", "data": [{"compound": "COC(=O)C1=C(C)NC(C)=C(C(=O)OCC(C)C)C1c1ccccc1[N+](=O)[O-]", "note": "(stereo not shown) [Nisoldipine]", "values": [{"measurement": "IC50", "result": "5.94 ± 0.55", "unit": "µM"}]}]}
